Experimental data taken from article PMC11813147, “Bioactivity assessment of peptides derived from salted jellyfish (Rhopilema hispidum) byproducts” (PLOS ONE, 2025).

How the values were obtained:
[1] = ABTS radical scavenging assay; assay type: biochemical; settings: for ABTS, mean±SD / ABTS: supplement tables
Protocol: The ABTS radical scavenging activity of the sample was measured using a method adapted from Mirzaei et al.. The ABTS radical was generated by mixing 7 mM ABTS with 2.45 mM potassium persulfate in a 1:1 ratio and incubating the mixture in the dark at room temperature for 12 to 16 h. The resulting solution was then diluted to achieve an absorbance of 0.74 ± 0.03 at 734 nm, using deionized water for adjustments. Next, 10 μL of the sample was added to 190 μL of the ABTS solution. The mixture was incubated in the dark for 7 min, after which the absorbance was measured at 734 nm. The ABTS radical scavenging activity (%) was calculated using the following equation (2):
ABTSradicalscavengingactivity%=Acontrol–Asample/Acontrol×100 (2)
In this equation, Acontrol refers to the absorbance of the control solution (which contains all reagents except the test samples), while Asample refers to the absorbance of the mixture containing the sample and the ABTS solution. To determine the Trolox equivalent antioxidant capacity (TEAC), a Trolox standard curve was used, and the results were expressed as millimoles of Trolox equivalents per milligram of protein (mM TE/mg protein).

RAW 264.7 [2] = assay: Cytotoxicity assessment (MTT); assay type: cell-based, Murine; settings: peptide 10 µg/mL, 72 h; for Cell viability, mean±SD: relative to untreated cells
Protocol: (§1) Murine macrophage cells (RAW 264.7; ATCC TIB-71™) were cultured in Dulbecco’s Modified Eagle’s Medium (DMEM) that was supplemented with 10% heat-inactivated fetal bovine serum (FBS) and 1% antibiotic solution. Colorectal adenocarcinoma cells (CaCo-2; ATCC HTB 37™) were cultured in Eagle’s Minimum Essential Medium (EMEM), also supplemented with 10% heat-inactivated FBS and 1% antibiotic solution. Both cell types were maintained in a humidified incubator with 5% CO2. The cell culture medium was refreshed every three days.
Cytotoxicity assessment was performed following the method described by Yang et al., with slight modifications. RAW 264.7 was seeded with 1 x 10^5 cells in a 96-well plate with an appropriate cell culture medium. After allowing the cells to attach, the medium was replaced with a fresh cell culture medium containing the peptide samples at a concentration of 10 µg/mL. The treated cells were incubated for an additional 72 h. At the designated time, fresh medium was added, which included 3-(4,5-dimethylthiazol-2-yl)-2,5-diphenyltetrazolium bromide (MTT) at a concentration of 0.5 mg/mL. After 3 h, formazan crystals were observed. The medium was then removed, and the crystals were dissolved in 100% dimethyl sulfoxide (DMSO). A microplate reader (Synergy HTX; Biotek, Multi-Mode Reader, Winooski, VT, USA) was utilized to measure the absorbance at 570 nm (measurement wavelength) and 630 nm (reference wavelength). The percentage of cell viability was calculated relative to untreated cells using the following equation (5):
Cellviability%=ODtreatment–ODblank/ODuntreated–ODblank×100 (5)
Where ODtreatment is the absorbance of the treated sample, ODuntreated is the absorbance of the untreated sample, and ODblank is the absorbance from wells without treated and untreated samples.

RAW 264.7 [3] = assay: Anti-inflammation assay: released NO in LPS-stimulated RAW 264.7 (Griess); assay type: cell-based, Murine; settings: then 1 µg/mL LPS 24 h; for Released NO: peptide 10 µg/mL 1 h; for Released NO, mean±SD: peptide 10 µg/mL pre-treatment 1 h, Griess reagent, n = 3
Protocol: as §1
The anti-inflammation assay was conducted following the method described by Barzkar et al. with slight modifications. RAW 264.7 (1 x 10^5 cells) was seeded into a 96-well plate to allow for cell attachment. After 24 h, the cells were pre-treated with fresh medium containing peptide samples at a concentration of 10 µg/mL for 1 h. Subsequently, the treated cells were stimulated with 1 µg/mL lipopolysaccharide (LPS) for an additional 24 h. Unstimulated cells were included as a negative control. At the end of the treatment period, the conditioned medium was collected for the determination of released nitric oxide (NO). Griess’s reagent (Promega) was utilized to measure the NO concentration, following the manufacturer’s instructions. A NO calibration curve was generated to quantify the released NO in the conditioned medium.

[4] = Ferric reducing antioxidant power (FRAP) assay; assay type: biochemical
Protocol: The FRAP assay was conducted following the method outlined by Rumpf et al.. The FRAP solution was prepared by mixing 300 mM acetate buffer (pH 3.6), 10 mM TPTZ (2,4,6-Tris(2-pyridyl)-s-triazine) in 40 mM hydrochloric acid, and 20 mM FeCl3 in a ratio of 10:1:1. In a 96-well plate, 10 μL of the sample was combined with 190 μL of the FRAP solution and incubated in the dark for 15 min. The absorbance of the mixture was then measured at 593 nm. FeSO4 was used to create the standard curve, and the results were expressed as millimoles of FeSO4 equivalent per milligram of protein (mM FeSO4/mg protein).

[5] = 10 µL sample + 190 µL FRAP solution, 15 min dark, 593 nm, FeSO4 standard curve, mean ± SD, n = 3, SD

| Sequence | ABTS, mean±SD ([1]; mean ± SD, n = 3) | ABTS ([1]; replicate 1) [TE/mg protein] | ABTS ([1]; replicate 2) [TE/mg protein] | ABTS ([1]; replicate 3) [TE/mg protein] | Cell viability, mean±SD (RAW 264.7 [2]; n = 3) | Cell viability (RAW 264.7 [2]; replicate 1) [%] | Cell viability (RAW 264.7 [2]; replicate 2) [%] | Cell viability (RAW 264.7 [2]; replicate 3) [%] | Released NO (RAW 264.7 [3]; replicate 1) [µM] | Released NO (RAW 264.7 [3]; replicate 2) [µM] | Released NO (RAW 264.7 [3]; replicate 3) [µM] | Released NO, mean±SD (RAW 264.7 [3]) [µM] | Released NO, mean±SD (RAW 264.7 [3]; SD) | FRAP [4, 5] | FRAP ([4]; supplement tables, replicate 1) [mM FeSO4/mg protein] | FRAP ([4]; supplement tables, replicate 2) [mM FeSO4/mg protein] | FRAP ([4]; supplement tables, replicate 3) [mM FeSO4/mg protein] | Cell viability, mean±SD (RAW 264.7 [2]; n = 3, SD) | ABTS radical scavenging activity (TEAC) ([1]; 10 µL sample + 190 µL ABTS solution, 7 min dark, 734 nm, Trolox standard curve, mean ± SD, n = 3) |
| --- | --- | --- | --- | --- | --- | --- | --- | --- | --- | --- | --- | --- | --- | --- | --- | --- | --- | --- | --- |
| MVVACVLPEA [P16, synthesized peptide identified from jellyfish fraction PUR20C] | 121.31±0.87^D TE/mg protein | 121.71 | 120.30 | 121.91 | without cytotoxic effects | 81.01 | 81.37 | 81.19 | 35.17 | 33.44 | 35.17 | 34.59 | 34.59 ± 0.99 µM | 6.92 mM FeSO4/mg protein | 8.05 | 7.63 | 5.10 |  |  |
| NQKAMQELNE [P1, synthesized peptide identified from jellyfish fraction PUR20C] | 4.44 TE/mg protein | 4.91 | 4.11 | 4.31 |  | 88.04 | 85.76 | 84.00 | 37.58 | 38.27 | 37.93 |  | 37.93 µM | 8.61±0.12^E mM FeSO4/mg protein | 8.47 | 8.68 | 8.68 | 85.94% |  |
| PFTMYFLL [P14, synthesized peptide identified from jellyfish fraction PUR20C] | 119.57±1.33^E TE/mg protein | 118.70 | 118.90 | 121.11 |  | 87.69 | 89.45 | 93.14 | 32.06 | 31.03 | 34.48 |  | 32.52±1.76^F µM | 9.24±1.05 mM FeSO4/mg protein | 10.36 | 9.10 | 8.26 | 90.09±2.78^B % |  |
| PMETDDQPNN [P17, synthesized peptide identified from jellyfish fraction PUR20C] | 4.64 TE/mg protein | 4.11 | 4.11 | 5.71 |  | 83.47 | 83.83 | 83.65 | 34.48 | 34.82 | 34.82 |  | 34.71 µM | 6.50±1.59^G mM FeSO4/mg protein | 7.63 | 7.21 | 4.68 | 83.65% |  |
| RARVVPMY [P6, synthesized peptide identified from jellyfish fraction PUR20C] | 139.87±0.50^A TE/mg protein | 139.34 | 139.94 | 140.34 |  | 92.97 | 82.77 | 80.66 | 34.82 | 35.51 | 39.65 |  | 36.66 ± 2.61 µM | 10.78±0.63^D mM FeSO4/mg protein | 10.15 | 11.42 | 10.78 | 85.47% | highest activity |
| RPLAKIIP [P8, synthesized peptide identified from jellyfish fraction PUR20C] | 3.11 TE/mg protein | 2.51 | 3.31 | 3.51 |  | 84.35 | 85.23 | 81.54 | 37.58 | 37.93 | 34.82 |  | 36.78 µM | 9.31 mM FeSO4/mg protein | 9.31 | 9.52 | 9.10 | 83.71% |  |
| TDSPAPSETTD [P2, synthesized peptide identified from jellyfish fraction PUR20C] | 2.91 TE/mg protein | 3.11 | 2.71 | 2.91 |  | 83.12 | 86.46 | 87.52 | 38.27 | 37.24 | 37.58 |  | 37.70 µM | 7.63 mM FeSO4/mg protein | 7.21 | 7.63 | 8.05 | 85.70% |  |
